TGI data for 15 molecules are collected here from PubChem BioAssay (NCI).

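All cell lines were grown in 96-well plates and treated with compound for 48 hours. TGI is the concentration that stops growth completely.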

Holding throughout (test): inhibition of tumour cell growth, NCI panel, 48 h
Assay [1] has as its system K-562 leukemia.
Assay [2] has as its system RPMI-8226 leukemia.
The subject of assay [3] is T-47D breast.
For assay [4], the system named is NCI-H522 lung.
Assay [5] has as its system SF-295 CNS.
Assay [6] concerns RXF 393 renal.
The test system of assay [7] is SK-OV-3 ovarian.
Assay [8] has as its system SK-MEL-5 melanoma.
Assay [9] concerns UO-31 renal.
Assay [10] concerns MOLT-4 leukemia.
Assay [11] concerns HCT-15 colon.
The subject of assay [12] is LOX IMVI melanoma.
The test system of assay [13] is NCI/ADR-RES ovarian.
Assay [14] relates to CCRF-CEM leukemia.
Assay [15] concerns SK-MEL-2 melanoma.
The test system of assay [16] is NCI-H226 lung.
The subject of assay [17] is U251 CNS.
Assay [18] relates to HL-60(TB) leukemia.
For assay [19], the system named is SN12C renal.

For the molecule `CC1=[N+]([O-])C(C)(C)N(O)C1(C)C`, the TGI in [1], in assay [2], in [3], in assay [4], in [5] and in assay [6] was above 100 µM throughout. Moreover, the TGI in assay [7], in assay [8], in assay [9], in assay [10], in [11] and in [12] was above 100 µM in each case. In addition, the TGI in assay [13], in assay [14], in [15], in [16], in assay [17] and in assay [18] was above 100 µM in each case. The same molecule came in with a TGI in assay [19] above 100 µM.

Regarding `N#CC(C#N)=C1CCCCc2ccc([N+](=O)[O-])cc21`, the TGI in assay [1] was above 100 µM; in [2], 87.5 µM; in [3], above 100 µM; in [4] it was 39.9 µM; in [5], above 100 µM; in assay [6], above 100 µM. Further, the TGI in assay [7], in assay [8], in assay [9], in assay [10], in [11] and in assay [12] was above 100 µM in each case. Also, the TGI in assay [13], in assay [14], in assay [15], in assay [16], in assay [17] and in [18] was above 100 µM in each case. The TGI in assay [19] is above 100 µM.

`CN1CCC/C1=C1\C(=O)c2cccn2C1=O`: the TGI in assay [1], in assay [2], in assay [3], in assay [4], in [5] and in [6] was above 100 µM each time. The TGI in assay [7], in [8], in assay [9], in [10], in assay [11] and in assay [12] was above 100 µM each time. For the same molecule, the TGI in [13], in assay [14], in assay [15], in [16], in [17] and in [18] was above 100 µM throughout. Further, in assay [19], the TGI was above 100 µM.

`CC(=C(C(=O)O)C(=O)O)c1cc(-c2cccs2)cc(-c2ccc(Cl)cc2)c1O`: the TGI in [1] was above 53.6 µM; in assay [2], 15.6 µM; in assay [3] it was 21.3 µM; in [4], 33.3 µM; in [5], 46.5 µM; in assay [6], 29.6 µM. For the same molecule, the TGI was above 82.5 µM in [7]; above 52.8 µM in [8]; 24.5 µM in [9]; 69.7 µM in assay [10]; 37.5 µM in assay [11]; 29.6 µM in assay [12]. Further, the TGI in [13] was 57.2 µM; in assay [14], above 76.5 µM; in assay [15] it was above 88.6 µM; in [16], above 72.2 µM; in [17], 29.3 µM; in [18] it was 46.6 µM. This molecule also showed a TGI in assay [19] of 30.5 µM.

On to `CCOC(=O)c1c(-c2ccccc2)[nH]c2ccc(Cl)cc2c1=O`, for which the TGI was above 100 µM in [1]; above 100 µM in assay [2]; 62 µM in [3]; 60.8 µM in assay [4]; above 100 µM in assay [5]; above 100 µM in [6]. Besides, the TGI in assay [7] is above 100 µM; in assay [8], above 100 µM; in [9], 70.8 µM; in [10] it was above 100 µM; in [11], above 100 µM; in assay [12] it was above 100 µM. Besides, the TGI in [13], in assay [14], in assay [15], in assay [16], in [17] and in assay [18] was above 100 µM each time. This molecule registered a TGI in [19] above 100 µM.

For `CCn1c(SCC(=O)NNC(=S)Nc2ccc(F)cc2)nc2ccccc2c1=O`, the TGI in assay [1], in assay [2], in assay [3], in assay [4], in [5] and in assay [6] was above 100 µM in each case. The TGI in assay [7], in assay [8], in assay [9], in assay [10], in assay [11] and in [12] was above 100 µM in each case. Moreover, the TGI in assay [13], in [14], in assay [15], in [16], in assay [17] and in [18] was above 100 µM each time. In assay [19], the TGI was above 100 µM.

For `COC(=O)C(Cc1c[nH]c2ccccc12)NP(=O)(O)OCC1OC(n2cc(F)c(=O)[nH]c2=O)CC1O` (stereo not given), the TGI in [1], in assay [2], in assay [3], in assay [4], in [5] and in assay [6] was above 100 µM each time. Moreover, the TGI in [7], in assay [8], in [9], in [10], in [11] and in assay [12] was above 100 µM in each case. Moreover, the TGI in assay [13] is above 100 µM; in assay [14], above 59.1 µM; in assay [15], above 100 µM; in [16], above 100 µM; in [17], above 100 µM; in assay [18], above 100 µM. Besides, in [19], the TGI was above 100 µM.

As to `CC(C)=CCC[C@@H](C)C1=C(Nc2ccccc2)C(O)=C(C)C(=O)C1=O`, the TGI in assay [1] is above 39.9 µM; in assay [2], above 100 µM; in assay [3] it was 32.3 µM; in assay [4], 16.5 µM; in assay [5], 11.1 µM; in assay [6] it was 21.3 µM. In addition, the TGI was above 36.4 µM in assay [7]; 7.97 µM in assay [8]; 15.5 µM in assay [9]; above 22.7 µM in assay [10]; 13.4 µM in assay [11]; 97.1 µM in assay [12]. For the same molecule, the TGI in assay [13] is 3.96 µM; in [14], 0.874 µM; in assay [15] it was 19.8 µM; in assay [16] it was 18.1 µM; in [17] it was above 56.1 µM; in [18], 1.35 µM. Besides, the TGI in assay [19] was 41.6 µM.

Consider `O=C(CCCN1CC=C(n2c(=O)[nH]c3ccccc32)CC1)c1cccs1`, for which the TGI in [1], in assay [2], in assay [3], in [4], in assay [5] and in assay [6] was above 100 µM in each case. The TGI in [7], in assay [8], in assay [9], in assay [10], in assay [11] and in assay [12] was above 100 µM in each case. Also, the TGI in assay [13], in assay [14], in assay [15], in assay [16], in assay [17] and in assay [18] was above 100 µM in each case. For the same molecule, the TGI in assay [19] is above 100 µM.

In the case of `N#CC1=C(N2CCOCC2)CCC1`, the TGI in assay [1], in assay [2], in [3], in assay [4], in assay [5] and in assay [6] was above 100 µM each time. The TGI in [7], in assay [8], in assay [9], in assay [10], in assay [11] and in assay [12] was above 100 µM in each case. Moreover, the TGI in assay [13], in assay [14], in [15], in assay [16], in assay [17] and in [18] was above 100 µM each time. The molecule also registered a TGI in assay [19] above 100 µM.

As to `C/C(=C\COP(=O)(O)OP(=O)(O)O)CC/C=C(\C)CNc1ccc([N+](=O)[O-])cc1`, the TGI in assay [1], in assay [2], in assay [3], in assay [4], in [5] and in [6] was above 100 µM in each case. Besides, the TGI in [7], in [8], in [9], in [10], in assay [11] and in assay [12] was above 100 µM in each case. The TGI in [13], in [14], in assay [15], in [16], in assay [17] and in assay [18] was above 100 µM throughout. Further, the TGI in assay [19] is above 100 µM.

As for `NC(=O)NC(=O)c1ccc(NC(=O)CBr)cc1`, the TGI in assay [1] was 3.92 µM; in assay [2] it was 3.59 µM; in assay [3], 4.01 µM; in [4], 0.277 µM; in [5], 27.3 µM; in assay [6], 3.32 µM. Besides, the TGI came to 9.49 µM in [7]; 3.23 µM in assay [8]; 2.78 µM in assay [9]; 2.61 µM in [10]; 4.56 µM in assay [11]; 2.26 µM in assay [12]. The TGI in assay [13] amounted to 7.53 µM; in assay [14], 0.376 µM; in [15], 4.61 µM; in [16], 10.2 µM; in assay [17], 2.25 µM; in assay [18] it was 3.27 µM. This molecule had a TGI in assay [19] of 1.18 µM.

Consider `O=C1c2cccnc2C(=O)c2c1nc1ccccc1c2-c1cncc(-c2c3c(nc4ccccc24)C(=O)c2cccnc2C3=O)c1`, for which the TGI in assay [1] is above 24.8 µM; in [2] it was 0.808 µM; in assay [3] it was 2.91 µM; in assay [4] it was 0.784 µM; in assay [5], 1.62 µM; in assay [6], 5.48 µM. Besides, the TGI in [7] stood at 2.1 µM; in assay [8], 0.52 µM; in assay [9] it was 0.946 µM; in assay [10], 0.788 µM; in [11], 0.414 µM; in [12], 0.449 µM. Besides, the TGI turned out to be 2.1 µM in assay [13]; 2.08 µM in [14]; 4.1 µM in [15]; 0.883 µM in assay [16]; 1.22 µM in assay [17]; 0.478 µM in assay [18]. The TGI in [19] is 0.613 µM.

As to `C#C[C@]1(O)CC[C@H]2[C@@H]3CCC4=C/C(=N\OCCN5CCCC5)CC[C@]4(C)[C@H]3CC[C@@]21C`, the TGI is above 39.2 µM in assay [1]; 13.2 µM in assay [2]; 60.4 µM in [3]; 12 µM in assay [4]; 14.5 µM in assay [5]; above 39.9 µM in assay [6]. For the same molecule, the TGI in assay [7] came out at 54.6 µM; in assay [8], 15.4 µM; in assay [9], 32.9 µM; in [10] it was 17.9 µM; in [11], 35 µM; in assay [12], 33 µM. The TGI in [13] is 31.5 µM; in [14], 51.6 µM; in assay [15], 24.4 µM; in [16], 55.5 µM; in assay [17], above 49.4 µM; in [18] it was 8.57 µM. Moreover, the TGI in assay [19] turned out to be 43.7 µM.

For the molecule `CC1=CCC[C@]2(C)C1=CC(=O)O[C@H]2c1ccoc1`, the TGI in [1], in assay [2], in assay [3], in [4], in [5] and in [6] was above 100 µM in each case. In addition, the TGI in [7], in [8], in [9], in assay [10], in [11] and in assay [12] was above 100 µM each time. In addition, the TGI in [13], in assay [14], in assay [15], in [16], in assay [17] and in assay [18] was above 100 µM each time. This molecule also registered a TGI in assay [19] above 100 µM.
